The target of the test is Bcl-2-like protein 1 (Homo sapiens) (UniProt Q07817). The test can be described thus: Bim-Bcl-XL interaction inhibitors, potency, dose response, biochemical, multiplexed, bead flow cytometry, human Bcl-XL (AID 1322). On inhibition: test concentration not given here. The settings on record: Bead-based flow cytometry, Bim peptide-Bcl-XL binding, MCF; for inhibition: hits give high values. For orientation: A flow cytometer gives signals particle by particle.

Structures are written as SMILES. Activity calls are given as the source filed them. How the calls were made is not given here.

Sequence of Bcl-2-like protein 1 (Homo sapiens) (Q07817 whole entry, looked up): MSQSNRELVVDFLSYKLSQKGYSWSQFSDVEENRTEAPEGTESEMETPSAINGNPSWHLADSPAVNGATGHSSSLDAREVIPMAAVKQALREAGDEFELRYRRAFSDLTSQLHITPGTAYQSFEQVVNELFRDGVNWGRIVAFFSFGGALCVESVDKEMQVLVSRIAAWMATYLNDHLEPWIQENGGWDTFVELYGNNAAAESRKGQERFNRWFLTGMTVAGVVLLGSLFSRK

`O=C1c2ccccc2C(=O)c2cc(S(=O)(=O)Nc3ccccc3)ccc21`: the result was inactive.

Turning to `COc1cccc(/C=N/Nc2nn3cnnc3c3ccccc23)c1O`, the EC50 result was “inactive”.

On to `Cc1ccc(-c2cc(-c3ccccc3)c(C#N)c(N)n2)o1`, for which the inhibition result was “inactive”.

`CC(C)c1ccc(/C=N/NC(=O)c2ccccc2Cl)cc1`: the inhibition entry was “inactive”.

On to `N#Cc1cccc(N=c2ssnc2Cl)c1`, for which the inhibition result is “inactive”.

Consider `CCOC(=O)c1cc2c(=O)n3ccccc3nc2n(Cc2ccco2)c1=NC(=O)c1ccccc1OC`, for which the outcome was inactive.

Turning to `Cc1ccc2c(c1)C1CN(C)CCC1N2C(=O)Nc1cccc(Cl)c1` (configuration not stated), the inhibition entry was “inactive”.

With `CC(C)n1nnnc1SCC(=O)N1CCN(C(=O)c2ccco2)CC1`, the inhibition result is “inactive”.

As to `NC(=O)CSc1nnc(Cn2cnc3ccccc32)o1`, the inhibition entry is “inactive”.

Turning to `COc1ccccc1NC1=C(NC(C)=O)C(=O)c2ccccc2C1=O`, the inhibition entry is “inactive”.

As to `O=C(N/N=C/c1ccncc1)c1cccc(NC(=O)c2ccccc2Cl)c1`, the inhibition result is “inactive”.

Turning to `COc1ccccc1-n1c(-c2ccccc2)c[nH]c1=S`, the inhibition entry was “inactive”.

For the molecule `CCc1ccc(NC(=O)CC2NCCNC2=O)cc1` (configuration not stated), the inhibition result is “inactive”.

`COc1ccc(CC(=O)Nc2ccc(C(=O)Nc3nccs3)cc2)cc1OC`: the inhibition entry was “inactive”.

As for `Cc1cc(N2CCN(C)CC2)nc2ccc(NC(=S)N3CCCCC3)cc12`, the inhibition entry was “inactive”.

On to `COc1ccc(S(=O)(=O)NCCOc2cccc3cccnc23)cc1OC`, for which the result was inactive.

As to `CCOc1cccc(CNc2ccc(O)cc2)c1OCc1ccc(Cl)cc1`, the inhibition result is “inactive”.

With `CN=C(NC1CCCCC1)c1ccc(Cl)cc1`, the outcome was inactive.

On to `O=C1C(Cl)=C(Nc2ccccc2O)C(=O)N1c1ccccc1`, for which the inhibition result is “inactive”.

In the case of `COc1ccc(-c2nnc(SCC(=O)Nc3nc4ccccc4s3)n2C)cc1`, the inhibition entry is “inactive”.

As to `Cc1ccc(-c2cc(C(=O)OCC(=O)N(C)C3CCS(=O)(=O)C3)c3ccccc3n2)o1` (configuration not stated), the inhibition entry was “inactive”.

Take `O=[N+]([O-])c1cccc(S(=O)(=O)NCC2CCCO2)c1` (configuration not stated): the inhibition entry is “inactive”.

In the case of `Cc1ccc(Nc2nc(-c3c(C)nc4ncccn34)cs2)cc1`, the inhibition entry was “inactive”.

Consider `CCN(CC)c1ccc(-c2nn3c(-c4ccccc4OC)nnc3s2)cc1`, for which the inhibition result was “inactive”.

For `Cc1cccc(OCC(=O)NCC(=O)N/N=C/c2cc(Br)ccc2OCc2ccccc2)c1`, the inhibition entry was “inactive”.

In the case of `COc1ccccc1C1=Nc2cccc3cccc(c23)N1`, the inhibition entry is “inactive”.

For the molecule `COCCN=c1scc(-c2cccs2)n1/N=C/c1ccc(O)c(O)c1O`, the inhibition entry was “inactive”.

`COc1ccc(-c2csc(NC(=O)/C(N=Nc3ccccc3)=C(\C)O)n2)cc1`: the result was inactive.

Regarding `COc1ccc2cc(CN(CCc3ccccc3)Cc3nnnn3CC3CCCO3)c(=O)[nH]c2c1` (configuration not stated), the inhibition entry is “inactive”.

Turning to `CCN1CCN(c2ccc(NC(=O)c3ccc4c(c3)[nH]c(=O)n4Cc3ccc(OC)cc3)cc2)CC1`, the inhibition entry was “inactive”.

`COc1ccc(NC(=O)c2ccco2)cc1NC(=O)c1ccco1`: the inhibition result was “inactive”.

As to `OC(COc1ccc2cc(Br)ccc2c1)CN1CCOCC1` (configuration not stated), the inhibition result was “inactive”.

As to `O=C(Nc1ccc2nc(-c3ccco3)c(-c3ccco3)nc2c1)NC1CC1`, the inhibition result was “inactive”.

With `Cc1cc(-c2nn(-c3ccccc3)cc2/C=C2\SC(N)=NC2=O)ccc1OC(C)C`, the inhibition entry was “inactive”.

With `Nc1ccccc1N=c1ssnc1Cl`, the inhibition entry was “inactive”.

As for `CC1CC2=C(NC(=S)NC2c2ccccc2F)/C(=C/c2ccccc2F)C1` (configuration not stated), the result was inactive.

As for `O=C(NNC(=O)C12CC3CC(CC(C3)C1)C2)c1ccco1`, the result was inactive.

The values above are taken from PubChem BioAssay AID1322 (NMMLSC, 2008).
